Laboratory results as given in patent publication US12703729B2, “GIP agonist compounds and methods” (Zealand Pharma A/S, priority 2014, dated 2026).
pEC50: −log10 of the molar value. Starred links: 1 amine or outer side, 2 acyl side, 3 side chain; linkers in the order of their positions; H or OH if unused. Non-standard residues stand in square brackets, D forms with d. Residues, ends and D or L forms follow the SMILES beside them. Groups on a side chain read outwards from the residue. *: point of attachment. X1 = O=C(O)CCCCCCCCCCCCCCCCCCC(=O)N1CCN(CC(=O)*)CC1; C20 diacid = O=C(O)CCCCCCCCCCCCCCCCCCC(=O)*; γGlu = O=C(O)[C@H](CCC(=O)[*:2])N[*:1]; AEEA = NCCOCCOCC(=O)O; Aib = CC(C)(N)C(=O)O

What was measured:
[1] = biological target: human GLP-1 receptor (GLP-1R) (Homo sapiens, UniProt P43220); test: Activity assay at human GLP-1 receptor, cAMP induction (AlphaScreen), Example 3
Chain of human GLP-1 receptor (GLP-1R) (P43220 24-463): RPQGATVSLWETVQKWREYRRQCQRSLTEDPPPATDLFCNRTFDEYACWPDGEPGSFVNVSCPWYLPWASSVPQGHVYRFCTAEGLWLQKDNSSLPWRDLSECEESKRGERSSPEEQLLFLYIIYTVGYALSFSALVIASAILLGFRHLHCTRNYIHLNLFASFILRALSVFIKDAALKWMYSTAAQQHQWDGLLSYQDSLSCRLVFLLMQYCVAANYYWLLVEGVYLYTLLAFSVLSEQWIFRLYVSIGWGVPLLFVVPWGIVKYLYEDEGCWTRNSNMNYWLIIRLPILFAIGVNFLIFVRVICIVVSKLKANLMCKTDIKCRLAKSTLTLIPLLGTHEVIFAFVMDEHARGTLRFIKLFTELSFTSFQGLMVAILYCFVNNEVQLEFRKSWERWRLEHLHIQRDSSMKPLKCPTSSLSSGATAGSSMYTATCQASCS

human GIP R = biological target: T1, human GIP R (Homo sapiens, UniProt P48546); test: cell-based
T1 sequence (P48546 22-466): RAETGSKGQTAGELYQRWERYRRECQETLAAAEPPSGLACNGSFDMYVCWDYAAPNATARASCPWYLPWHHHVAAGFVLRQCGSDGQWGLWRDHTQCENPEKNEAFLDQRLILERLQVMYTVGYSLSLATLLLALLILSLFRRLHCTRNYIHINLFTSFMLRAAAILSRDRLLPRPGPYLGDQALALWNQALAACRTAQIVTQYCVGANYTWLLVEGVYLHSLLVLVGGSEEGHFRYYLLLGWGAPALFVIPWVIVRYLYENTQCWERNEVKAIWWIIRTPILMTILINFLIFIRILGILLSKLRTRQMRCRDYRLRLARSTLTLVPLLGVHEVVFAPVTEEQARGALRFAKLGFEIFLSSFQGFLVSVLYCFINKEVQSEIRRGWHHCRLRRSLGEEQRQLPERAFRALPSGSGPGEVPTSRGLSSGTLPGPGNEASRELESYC

[2] = biological target: T2, human GIP receptor (GIP R) (Homo sapiens, UniProt P48546); test: Activity assay at human GIP receptor, cAMP induction (AlphaScreen), Example 3
T2 sequence (P48546 22-466): T1 sequence (P48546 22-466)

Question: With `CC[C@H](C)[C@H](NC(=O)[C@H](CO)NC(=O)[C@H](Cc1ccc(O)cc1)NC(=O)[C@H](CC(=O)O)NC(=O)[C@H](CO)NC(=O)[C@@H](NC(=O)[C@H](Cc1ccccc1)NC(=O)[C@@H](NC(=O)CNC(=O)[C@H](CCC(=O)O)NC(=O)C(C)(C)NC(=O)[C@@H](N)Cc1ccc(O)cc1)[C@@H](C)O)[C@@H](C)CC)C(=O)N[C@@H](CCC(=O)O)C(=O)N[C@@H](CC(C)C)C(=O)N[C@@H](CC(=O)O)C(=O)N[C@@H](CCCCN)C(=O)N[C@@H](CCCCNC(=O)COCCOCCNC(=O)COCCOCCNC(=O)CC[C@H](NC(=O)CCCCCCCCCCCCCCCCCCC(=O)O)C(=O)O)C(=O)N[C@@H](Cc1c[nH]cn1)C(=O)N[C@@H](CCC(N)=O)C(=O)N[C@@H](CCC(N)=O)C(=O)N[C@@H](CC(=O)O)C(=O)N[C@@H](Cc1ccccc1)C(=O)N[C@H](C(=O)N[C@@H](CC(N)=O)C(=O)N[C@@H](Cc1ccc(O)cc1)C(=O)N[C@@H](CC(C)C)C(=O)N[C@@H](CC(C)C)C(=O)N[C@@H](C)C(=O)N[C@@H](CCC(N)=O)C(=O)NCC(=O)N1CCC[C@H]1C(=O)N[C@@H](CO)C(=O)N[C@@H](CO)C(=O)NCC(=O)N[C@@H](C)C(=O)N1CCC[C@H]1C(=O)N1CCC[C@H]1C(=O)N1CCC[C@H]1C(=O)N[C@@H](CO)C(N)=O)C(C)C` [Compound 8] (H-Y[Aib]EGTFISDYSIELDKK([AEEA-AEEA-γGlu-C20 diacid])HQQDFVNYLLAQGPSSGAPPPS-NH2) as the compound, how does the pEC50 [1] read?
Answer: < 8.00

Question: What about the pEC50 (human GIP R) of the same compound?
Answer: 11.05

Question: `CC[C@H](C)[C@H](NC(=O)[C@H](CO)NC(=O)[C@H](Cc1ccc(O)cc1)NC(=O)[C@H](CC(=O)O)NC(=O)[C@H](CO)NC(=O)[C@@H](NC(=O)[C@H](Cc1ccccc1)NC(=O)[C@@H](NC(=O)CNC(=O)[C@H](CCC(=O)O)NC(=O)C(C)(C)NC(=O)[C@@H](N)Cc1ccc(O)cc1)[C@@H](C)O)[C@@H](C)CC)C(=O)N[C@@H](CCC(=O)O)C(=O)N[C@@H](CC(C)C)C(=O)N[C@@H](CC(=O)O)C(=O)N[C@@H](CCCCN)C(=O)N[C@@H](CCCCNC(=O)COCCOCCNC(=O)COCCOCCNC(=O)CC[C@H](NC(=O)CCCCCCCCCCCCCCCCCCC(=O)O)C(=O)O)C(=O)N[C@@H](Cc1c[nH]cn1)C(=O)N[C@@H](CCC(N)=O)C(=O)N[C@@H](CCC(N)=O)C(=O)N[C@@H](CC(=O)O)C(=O)N[C@@H](Cc1ccccc1)C(=O)N[C@H](C(=O)N[C@@H](CC(N)=O)C(=O)N[C@@H](Cc1c[nH]c2ccccc12)C(=O)N[C@@H](CC(C)C)C(=O)N[C@@H](CC(C)C)C(=O)N[C@@H](C)C(=O)N[C@@H](CCC(N)=O)C(=O)NCC(=O)N1CCC[C@H]1C(=O)N[C@@H](CO)C(=O)N[C@@H](CO)C(=O)NCC(=O)N[C@@H](C)C(=O)N1CCC[C@H]1C(=O)N1CCC[C@H]1C(=O)N1CCC[C@H]1C(=O)N[C@@H](CO)C(N)=O)C(C)C` [Compound 9] (H-Y[Aib]EGTFISDYSIELDKK([AEEA-AEEA-γGlu-C20 diacid])HQQDFVNWLLAQGPSSGAPPPS-NH2) was tested. Which pEC50 [1] did it give?
Answer: < 8.52

Question: What about the pEC50 [2] of the same compound?
Answer: 11.05

Question: And the pEC50 (human GIP R)?
Answer: 11.10

Question: How did the pEC50 [1] turn out when `CC[C@H](C)[C@H](NC(=O)[C@H](CO)NC(=O)[C@H](Cc1ccc(O)cc1)NC(=O)[C@H](CC(=O)O)NC(=O)[C@H](CO)NC(=O)[C@@H](NC(=O)[C@H](Cc1ccccc1)NC(=O)[C@@H](NC(=O)CNC(=O)[C@H](CCC(=O)O)NC(=O)C(C)(C)NC(=O)[C@@H](N)Cc1ccc(O)cc1)[C@@H](C)O)[C@@H](C)CC)C(=O)N[C@@H](CCC(=O)O)C(=O)N[C@@H](CC(C)C)C(=O)N[C@@H](CCC(=O)O)C(=O)N[C@@H](CCCCN)C(=O)N[C@@H](CCCCNC(=O)COCCOCCNC(=O)COCCOCCNC(=O)CC[C@H](NC(=O)CCCCCCCCCCCCCCCCCCC(=O)O)C(=O)O)C(=O)N[C@@H](C)C(=O)N[C@@H](C)C(=O)N[C@@H](CCCCN)C(=O)N[C@@H](CCC(=O)O)C(=O)N[C@@H](Cc1ccccc1)C(=O)N[C@H](C(=O)N[C@@H](CC(N)=O)C(=O)N[C@@H](Cc1c[nH]c2ccccc12)C(=O)N[C@@H](CC(C)C)C(=O)N[C@@H](CC(C)C)C(=O)N[C@@H](C)C(=O)N[C@@H](CCC(N)=O)C(=O)NCC(=O)N1CCC[C@H]1C(=O)N[C@@H](CO)C(=O)N[C@@H](CO)C(=O)NCC(=O)N[C@@H](C)C(=O)N1CCC[C@H]1C(=O)N1CCC[C@H]1C(=O)N1CCC[C@H]1C(=O)N[C@@H](CO)C(N)=O)C(C)C` [Compound 11] (H-Y[Aib]EGTFISDYSIELEKK([AEEA-AEEA-γGlu-C20 diacid])AAKEFVNWLLAQGPSSGAPPPS-NH2) was run?
Answer: < 8.52

Question: What about the pEC50 [2] of the same compound?
Answer: 11.10

Question: What about the pEC50 (human GIP R) of the same compound?
Answer: 11.05

Question: `CC[C@H](C)[C@H](NC(=O)[C@H](CCCCN)NC(=O)[C@H](CCC(=O)O)NC(=O)[C@H](CC(C)C)NC(=O)[C@H](CCC(=O)O)NC(=O)[C@@H](NC(=O)[C@H](CO)NC(=O)[C@H](Cc1ccc(O)cc1)NC(=O)[C@H](CC(=O)O)NC(=O)[C@H](CO)NC(=O)[C@@H](NC(=O)[C@H](Cc1ccccc1)NC(=O)[C@@H](NC(=O)CNC(=O)[C@H](CCC(=O)O)NC(=O)C(C)(C)NC(=O)[C@@H](N)Cc1ccc(O)cc1)[C@@H](C)O)[C@@H](C)CC)[C@@H](C)CC)C(=O)N[C@@H](C)C(=O)N[C@@H](CCC(N)=O)C(=O)N[C@@H](CCCNC(=N)N)C(=O)N[C@@H](C)C(=O)N[C@@H](Cc1ccccc1)C(=O)N[C@H](C(=O)N[C@@H](CCC(=O)O)C(=O)N[C@@H](Cc1c[nH]c2ccccc12)C(=O)N[C@@H](CC(C)C)C(=O)N[C@@H](CC(C)C)C(=O)N[C@@H](C)C(=O)N[C@@H](CCC(N)=O)C(=O)N[C@@H](CCCCNC(=O)COCCOCCNC(=O)COCCOCCNC(=O)CC[C@H](NC(=O)CCCCCCCCCCCCCCCCCCC(=O)O)C(=O)O)C(N)=O)C(C)C` [Compound 14] (H-Y[Aib]EGTFISDYSIELEKIAQRAFVEWLLAQK([AEEA-AEEA-γGlu-C20 diacid])-NH2) was tested. Which pEC50 [1] did it give?
Answer: < 8.00

Question: And the pEC50 [2]?
Answer: 10.85

Question: What about the pEC50 (human GIP R) of the same compound?
Answer: 10.62

Question: With `CC[C@H](C)[C@H](NC(=O)[C@H](Cc1ccccc1)NC(=O)[C@H](C)NC(=O)[C@H](CCCNC(=N)N)NC(=O)[C@H](CCC(N)=O)NC(=O)[C@H](C)NC(=O)[C@H](CCCCNC(=O)COCCOCCNC(=O)COCCOCCNC(=O)CN1CCN(C(=O)CCCCCCCCCCCCCCCCCCC(=O)O)CC1)NC(=O)[C@H](CCCCN)NC(=O)[C@H](CC(=O)O)NC(=O)[C@H](CC(C)C)NC(=O)[C@H](CCC(=O)O)NC(=O)[C@@H](NC(=O)[C@H](CO)NC(=O)[C@H](Cc1ccc(O)cc1)NC(=O)[C@H](CC(=O)O)NC(=O)[C@H](CO)NC(=O)[C@@H](NC(=O)[C@H](Cc1ccccc1)NC(=O)[C@@H](NC(=O)CNC(=O)[C@H](CCC(=O)O)NC(=O)C(C)(C)NC(=O)[C@@H](N)Cc1ccc(O)cc1)[C@@H](C)O)[C@@H](C)CC)[C@@H](C)CC)C(=O)N[C@@H](CCC(=O)O)C(=O)N[C@@H](Cc1c[nH]c2ccccc12)C(=O)N[C@@H](CC(C)C)C(=O)N[C@@H](CC(C)C)C(=O)N[C@@H](C)C(=O)N[C@@H](CCC(N)=O)C(=O)NCC(=O)N1CCC[C@H]1C(=O)N[C@@H](CO)C(=O)N[C@@H](CO)C(=O)NCC(=O)N[C@@H](C)C(=O)N1CCC[C@H]1C(=O)N1CCC[C@H]1C(=O)N1CCC[C@H]1C(=O)N[C@@H](CO)C(N)=O` [Compound 19] (H-Y[Aib]EGTFISDYSIELDKK([AEEA-AEEA-X1])AQRAFIEWLLAQGPSSGAPPPS-NH2) as the compound, how does the pEC50 [1] read?
Answer: < 8.52

Question: What about the pEC50 [2] of the same compound?
Answer: 11.30

Question: And the pEC50 (human GIP R)?
Answer: 11.22

Question: Which results are given for `CC[C@H](C)[C@H](NC(=O)[C@H](CO)NC(=O)[C@H](Cc1ccc(O)cc1)NC(=O)[C@H](CC(=O)O)NC(=O)[C@H](CO)NC(=O)[C@@H](NC(=O)[C@H](Cc1ccccc1)NC(=O)[C@@H](NC(=O)CNC(=O)[C@H](CCC(=O)O)NC(=O)C(C)(C)NC(=O)[C@@H](N)Cc1ccc(O)cc1)[C@@H](C)O)[C@@H](C)CC)C(=O)N[C@@H](CCC(=O)O)C(=O)N[C@@H](CC(C)C)C(=O)N[C@@H](CC(=O)O)C(=O)N[C@@H](CCCCN)C(=O)N[C@@H](CCCCNC(=O)COCCOCCNC(=O)COCCOCCNC(=O)CN1CCN(C(=O)CCCCCCCCCCCCCCCCCCC(=O)O)CC1)C(=O)N[C@@H](C)C(=O)N[C@@H](CCC(N)=O)C(=O)N[C@@H](CCCNC(=N)N)C(=O)N[C@@H](C)C(=O)N[C@@H](Cc1ccccc1)C(=O)N[C@H](C(=O)N[C@@H](CCC(=O)O)C(=O)N[C@@H](Cc1c[nH]c2ccccc12)C(=O)N[C@@H](CC(C)C)C(=O)N[C@@H](CC(C)C)C(=O)N[C@@H](C)C(=O)N[C@@H](CCC(N)=O)C(=O)NCC(=O)N1CCC[C@H]1C(=O)N[C@@H](CO)C(=O)N[C@@H](CO)C(=O)NCC(=O)N[C@@H](C)C(=O)N1CCC[C@H]1C(=O)N1CCC[C@H]1C(=O)N1CCC[C@H]1C(=O)N[C@@H](CO)C(N)=O)C(C)C` [Compound 20] (H-Y[Aib]EGTFISDYSIELDKK([AEEA-AEEA-X1])AQRAFVEWLLAQGPSSGAPPPS-NH2)?
Answer: pEC50 [1]: < 8.52; pEC50 [2]: 11.22; pEC50 (human GIP R): 11.15
